Patent US20200360455A1 (priority 2018, published 2020)

Tested on: Old mice
Experiment: Wire hang test
Type: in vivo, mouse
Conditions: creatine 120 mg/kg
Protocol: The test was performing using a wire having a diameter of 2 mm installed at a height of 25 cm. Each mouse was placed on the wire using only the front legs, and the time of hanging without falling was measured. The time when the mouse was suspended and then dropped was measured and the test was conducted for a maximum of 120 seconds. In this way, each mouse was repeated 3 times at approximately 20 minute intervals. The results of each mouse were analyzed for the average value of the first and longest hanging time in three trials. […] In addition, creatine 120 mg/kg (creatine-120) was administered to mice as a positive control, and the test was conducted under the same conditions.

**Q.** `CN(CC(=O)O)C(=N)N` [creatine] was tested. Which “wire hang effect of positive control vs aging mouse group” value did it give?
**A.** more effective than the aging mouse group
